Measured values reported in US11712404B2 (priority 2018, dated 2023).

Key:
[1] = at 30° C. and 1 Hz; cited from earlier work
[2] = Water sorption and solubility (ISO 4049); type: physicochemical; settings: for water sorption: one week in water
Protocol: The same samples used in the polymerization kinetics test were stored dry at room temperature for 24 hs, then used for the water sorption (WS) and solubility (SL) test, according to ISO 4049 (REF). The initial mass (M1) was recorded and the volume calculated following the equation: V=h×πr^2 where h (mm) is the sample height and r (mm) is the sample radius.
Each sample was placed in a tight-close glass vial with 5 glass beads on the bottom to ensure the whole surface of the sample was exposed to water, and then the vial was filled by 5 ml of double-distilled water and kept closed for one week. The samples were then removed from water, patted dry and weighed again (M2) and placed in a desiccator until mass stabilization (M3) was observed. Water sorption (WS) and solubility (SL) were calculated according to the equations:
[formula] and the results were converted into […], where V is the volume of the specimen. Dentin Microtensile Bond Strength
The same samples used in the polymerization kinetics were tested for water sorption and solubility, according to [25]. Briefly, the mass of the disks was determined before (m1) and after immersion in distilled water for one week (m2). The disks were then stored in a desiccator until the mass stabilized (m3), which took around one week. Water sorption (WS) and solubility (SL) were calculated using the following equations:
[formula] where V is the volume of the specimen. 2.4 Microtensile bond strength

[3] = molecular target: T1, matrix metalloproteinase 2 (MMP-2) (Homo sapiens, UniProt P08253); assay: MMP-2 incubation, fluorometric assay; type: biochemical; settings: 0.02 mM monomer, 24 hours at 37° C., fluorescence Ex/Em=490/525 nm
T1 sequence (P08253 110-660): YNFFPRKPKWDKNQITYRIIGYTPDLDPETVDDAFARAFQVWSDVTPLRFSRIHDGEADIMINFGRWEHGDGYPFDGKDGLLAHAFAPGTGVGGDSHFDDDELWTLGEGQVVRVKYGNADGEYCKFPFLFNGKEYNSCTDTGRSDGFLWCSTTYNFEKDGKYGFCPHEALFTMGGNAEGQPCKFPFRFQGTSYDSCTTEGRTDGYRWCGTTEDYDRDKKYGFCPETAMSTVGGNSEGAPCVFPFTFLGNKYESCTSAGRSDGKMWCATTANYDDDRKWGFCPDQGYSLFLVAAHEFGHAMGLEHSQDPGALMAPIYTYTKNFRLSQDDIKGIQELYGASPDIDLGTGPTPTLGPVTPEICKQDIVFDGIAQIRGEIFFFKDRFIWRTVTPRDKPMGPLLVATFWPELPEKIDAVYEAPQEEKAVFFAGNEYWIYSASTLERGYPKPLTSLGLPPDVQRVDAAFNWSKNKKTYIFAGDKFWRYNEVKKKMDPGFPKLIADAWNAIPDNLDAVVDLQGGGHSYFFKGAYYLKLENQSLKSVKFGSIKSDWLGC
Protocol: MMP-2 incubation was prepared at 0.02 mM monomer concentration and incubated at 24 hours at 37° C. and degradation from MMP was measured via a fluorometric assay utilizing a plate reader.
BB94 is a commercial, known inhibitor of MMP-2. Plate reader fluorescence was set at Ex/Em=490/525 nm. Lower fluorescence signal indicates enzyme inhibition. Initial study indicate HEMA and HEMAM inhibition of MMP-2.

[4] = Neat monomer incubation in water, remaining monomer by HPLC; settings: neat compound incubated in water
Protocol: (§1) Monomers were prepared to a concentration of 0.15 mM for water and CE/PCE incubations and incubated at 72 hours at 37° C.
(§2) Degradation from CE and PCE was monitored via high performance liquid chromatography (HPLC) and measured via initial and post incubation monomer area difference.
(§3) This was calculated in the decrease in absorbance area measured by HPLC at 227 nm wavelength. Degradation was further verified by the detection of methacrylic acid.

[5] = tested on: cholinesterase (CE) and pseudocholinesterase (PCE); assay: Neat monomer incubation with cholinesterase / pseudocholinesterase, HPLC; settings: neat compound in the presence of cholinesterase
Protocol: as §1, §2, §3

[6] = Monomer degradation in low pH environment (1H NMR); settings: neat monomer, 30 days

SMILES	water sorption ([2]; UDMA mixtures) [μg/mm3]	degradation under aqueous conditions [4]	degraded monomers under enzymatic conditions [5] [%]	other results
C=C(C)C(=O)OCC(O)COc1ccc(C(C)(C)c2ccc(OCC(O)COC(=O)C(=C)C)cc2)cc1 (stereo not shown) [BisGMA, Bisphenol A glycerolate dimethacrylate]	–	–	–	initial viscosity [1]: 1369 Pa·s
C=CC(=O)N(C)C [DMAM, N.N-Dimethylacrylamide]	224.7	–	–	solubility ([2]; BisGMA co-polymerization): 52.3 μg/mm3; solubility ([2]; UDMA co-polymerization): 44.3 μg/mm3
C=CC(=O)N(C)CCO [HEM, N-(2-hydroxyethyl)-N-methylacrylamide]	203.5	–	–	water sorption ([2]; BisGMA co-polymerizations): 38.7 μg/mm3
C=C(C)C(=O)OCCO [HEMA, 2-Hydroxyethyl methacrylate]	102.8	8%	52	inhibition of MMP-2 [3]: inhibition; degradation ([6]; pH 1, 37° C.): 69.0 (2.3) %; degradation ([6]; pH 2, 37° C.): 10.5 (0.7) %
C=C(C)C(=O)NCCO [HEMAM, N-Hydroxyethyl methacrylamide]	–	–	–	inhibition of MMP-2 [3]: inhibition; degradation ([6]; pH 1, 37° C.): 6.0 (0) %; degradation ([6]; pH 2, 37° C.): did not show any significant amount of degradation products
C=C(C)C(=O)NC(CC)CO (stereo not shown) [Monomer 2EM, N-(1-hydroxybutan-2-yl)methacrylamide]	102.7	virtually no degradation	22	–
C=C(C)C(=O)NC(C)(C)CO [Monomer 2dMM, N-(1-hydroxy-2-methylpropan-2-yl)methacrylamide]	102.7	virtually no degradation	8	–
C=C(C)C(=O)OCCOC(=O)NCCC(C)CC(C)(C)CNC(=O)OCCOC(=O)C(=C)C (stereo not shown) [UDMA, urethane dimethacrylate]	–	–	–	initial viscosity [1]: 28 Pa·s
